In publication PMC4965013, “Open Source Drug Discovery with the Malaria Box Compound Collection for Neglected Diseases and Beyond” (PLoS Pathogens, 2016):
pEC50, pIC50: −log10 of the molar value. Where two headings read alike, the source gives them in different places.

Assays:
[1] = system: Naegleria fowleri trophozoites; assay: Naegleria fowleri CellTiter-Glo; assay type: cell-based; conditions: 1µM
In short: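 Growth inhibition of Naegleria fowleri trophozoites in vitro, read as cellular ATP by CellTiter-Glo 2.0 luminescence in lysed cells, output in relative light units.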

[2] = system: P. falciparum Dd2; assay: Malaria Sybr Green I Fluorescence assay Dd2 Horrocks; assay type: cell-based; conditions: Plasmodium falciparum, DD2, 48 h; read-out: P. falciparum Dd2 asexual blood stage EC50 Horrocks
In short: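 Dd2 asexual parasites started at 2% trophozoite-stage parasitaemia and 2% hematocrit; growth read by SYBR Green I fluorescence after 48 h. IC50 values taken from log dose-response curves.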

[3] = system: Dictyostelium discoideum; assay: D. discoideum toxicity assay; assay type: cell-based; conditions: 10µM
Experimental: Columns FA-FC: Soldati Group (data presented first in this paper). M. marinum, D. discoideum, and Acathamoeba castellani assays. Each compound of the Malaria Box has been assayed at 10 µM in all three assays. First, the antibiotic activity was assayed directly against Mycobacterium marinum in its culture medium. Second, the toxicity and growth inhibitory effect of the compounds was assayed against the amoeba Dictyostelium discoideum in its culture medium. Finally, the “in cellulo” anti-infective activity of each compound was tested using the intracellular infection system Acanthamoeba castellanii-M. marinum. Values have been normalized using the DMSO carrier. For each assay, values have been normalized to 1.00 using the DMSO carrier, which has no detectable effect on D. discoideum nor M. marinum growth, while rifabutin was used as positive control for the antibiotic assay and the infection assay, as it abolishes M. marinum growth (normalized value under 0.10) in broth at 10 µM and intracellularly at 30 µM [150].

[4] = system: Trypanosoma cruzi; assay: T. cruzi Scynexis; assay type: cell-based
[5] = system: P. falciparum in vitro translation; design: method as in ref [19] (a number printed in a supplementary file, which may have a reference list of its own: not looked up in the article's list); conditions: 1 µM; ref [19]; cited from earlier work
[6] = system: P. falciparum NF54 GFP-Pfs16 gametocytes stage I-III; conditions: ref [64], cited from earlier work
[7] = system: Saccharomyces cerevisiae strain JHY222; assay: S. cerevisiae JHY222 growth in three media; assay type: cell-based; conditions: 100µM
Experimental: Columns EB-ED: St. Onge group (data presented first in this paper). Growth inhibition of S. cerevisiae: The effects of Malaria Box compounds on the growth of yeast (Saccharomyces cerevisiae) were quantified as described previously. We employed the prototrophic yeast strain JHY222, a derivative of BY4743 in which auxotrophic markers have been repaired. Growth was measured in three different growth media: rich medium using dextrose as a carbon source, minimal medium using dextrose as a carbon source, or minimal medium using ethanol and glycerol as carbon sources. Compounds affecting growth in a media-specific manner may represent inhibitors of key metabolic pathways. For example, the antifolate drug methotrexate was previously shown to inhibit yeast growth far more potently in minimal medium compared to rich medium.

[8] = system: Trypanosoma brucei brucei 427; assay: T. brucei brucei Scynexis; assay type: cell-based
[9] = system: Perkinsus marinus trophozoites; design: method as in ref [96] (a number printed in a supplementary file, which may have a reference list of its own: not looked up in the article's list); conditions: 20µM; ref [96]; cited from earlier work
[10] = Plasma protein binding mouse; assay type: in vitro ADME; conditions: CD-1, mouse
Experimental: Columns GD-GJ: Wuxi Inc. data for MMV (data presented first in this paper) PK/DMPK Parameters: Fasted animals (Male CD-1 mouse, 7-9 weeks age, 30±10 g, n=3) obtained from an approved vendor (SLAC Laboratory Animal Co. Ltd., Shanghai, China or Sino-British SIPPR/BK Laboratory Animal Co. Ltd Shanghai, China) were administered with a single oral dose (140 μmol/kg) using DMSO: 1% HPMC (5:95) as a vehicle. Blood sampling was performed via the submandibular or saphenous vein (t=0.083, 0.25, 1, 2, 4, 6 and 9 h) and transferred into microcentrifuge tubes containing Sodium Heparin (1,000 IU/ml) as anti-coagulant placed on wet ice until processed for plasma by centrifugation at approximately 4°C, 3000×g for 15 min. Plasma samples were stored in polypropylene tubes, quick frozen over dry ice and kept at -70±10°C until LC/MS/MS analysis. LC/MS/MS methods for the quantitative determination compounds plasma levels were developed with an internal standard. […] (Phoenix WinNonlin, version 6.2.1, Pharsight, Mountain View, CA) and expressed as Cmax & AUC0-last. […] AUC0-last is the area under the curve expressed as >12 h*μM (Yes or No). Plasma protein binding assay (PPB) (CD-1 mouse and human) expressed as <95% bound, >95% bound, or >99% bound. Kinetic Solubility at pH 7.4 was determined by liquid chromatography/chemiluminescence nitrogen detection (LC/CLND) and was scored as greater than 20µM (Yes or No). hERG inhibition was measured at 11µM by the QPatch- HT system and is expressed as “Yes” if greater than 45% inhibited at 11µM and “No” if less than or equal to 45% inhibited at 11µM. As part of the Drug-Drug Interaction studies (DDI issues), 5 human and 1 mouse CYP isoforms (1A2, 2C9, 2C19, 2D6, 3A4-M, 3A4-T) were tested for inhibition assay at 10 µM. […] Otherwise DDI issues were scored as “No”. Positive and negative controls were run for each assay (Table 1).

[11] = system: T. b. brucei Squib 427; conditions: ref [84]; read-out: Trypansoma brucei brucei Squib 427 IC50; cited from earlier work

CCOC(=O)c1cnc2ccc(OC)cc2c1NCc1ccccc1 [MMV665813]
Naegleria fowleri % growth [1]: 91%
pEC50 [2]: 5.31
Dictyostelium discoideum relative growth DMSO=1 Toxicity Assay [3]: 0.71
inhibition at 5 µM [4]: -49%
Translation Inhibitors (nl = 1.0, in vitro translation with P. falciparum lysate) [5]: 1.47
gametocyte early stage (I-III) GFP-MTR % inhibition ([6]; 0.5µM): 26%
gametocyte early stage (I-III) GFP-MTR % inhibition ([6]; 5µM): 17%
S. cerevisiae jhy222 in YNBD medium growth compared with DMSO control [7]: -0.13
S. cerevisiae jhy222 in YNBEG medium growth compared with DMSO control [7]: -0.06
S. cerevisiae jhy222 in YPD medium growth compared with DMSO control [7]: 0.0021
inhibition at 5 µM [8]: -25%
Perkinsus marinus % growth [9]: 69%
fraction unbound [10]: < 0.01
pIC50 [11]: 4.83

CCN(CC)c1cc(C)c2cc(NC(=O)c3cccc(OC)c3)ccc2n1 [MMV000498]
Naegleria fowleri % growth [1]: 80%
pEC50 [2]: 5.56
Dictyostelium discoideum relative growth DMSO=1 Toxicity Assay [3]: 0.60
inhibition at 5 µM [4]: 98%
Translation Inhibitors (nl = 1.0, in vitro translation with P. falciparum lysate) [5]: 0.87
gametocyte early stage (I-III) GFP-MTR % inhibition ([6]; 0.5µM): 15%
gametocyte early stage (I-III) GFP-MTR % inhibition ([6]; 5µM): 16%
S. cerevisiae jhy222 in YNBD medium growth compared with DMSO control [7]: -0.05
S. cerevisiae jhy222 in YNBEG medium growth compared with DMSO control [7]: 0.14
S. cerevisiae jhy222 in YPD medium growth compared with DMSO control [7]: -0.0562
inhibition at 5 µM [8]: 74%
Perkinsus marinus % growth [9]: 74%
fraction unbound [10]: < 0.01
pIC50 [11]: 4.85

CCN1CCN(c2cc(C)c3cc(NC(=O)c4ccc(OC)c(OC)c4)ccc3n2)CC1 [MMV019074]
Naegleria fowleri % growth [1]: 88%
pEC50 [2]: 5.73
inhibition at 5 µM [4]: 13%
Translation Inhibitors (nl = 1.0, in vitro translation with P. falciparum lysate) [5]: 0.94
gametocyte early stage (I-III) GFP-MTR % inhibition ([6]; 0.5µM): 11%
gametocyte early stage (I-III) GFP-MTR % inhibition ([6]; 5µM): 14%
S. cerevisiae jhy222 in YNBD medium growth compared with DMSO control [7]: 0.0025
S. cerevisiae jhy222 in YNBEG medium growth compared with DMSO control [7]: -0.0049
S. cerevisiae jhy222 in YPD medium growth compared with DMSO control [7]: -0.0537
inhibition at 5 µM [8]: 45%
Perkinsus marinus % growth [9]: 92%
fraction unbound [10]: < 0.05
pIC50 [11]: 5.32

COc1ccc(C(=O)Nc2ccc3nc(N4CCCCC4)cc(C)c3c2)cc1OC [MMV019758]
Naegleria fowleri % growth [1]: 87%
pEC50 [2]: 6.21
Dictyostelium discoideum relative growth DMSO=1 Toxicity Assay [3]: 0.88
inhibition at 5 µM [4]: 71%
Translation Inhibitors (nl = 1.0, in vitro translation with P. falciparum lysate) [5]: 0.98
gametocyte early stage (I-III) GFP-MTR % inhibition ([6]; 0.5µM): -8%
gametocyte early stage (I-III) GFP-MTR % inhibition ([6]; 5µM): 8%
S. cerevisiae jhy222 in YNBD medium growth compared with DMSO control [7]: 0.0051
S. cerevisiae jhy222 in YNBEG medium growth compared with DMSO control [7]: 0.20
S. cerevisiae jhy222 in YPD medium growth compared with DMSO control [7]: 0.0044
inhibition at 5 µM [8]: -11%
Perkinsus marinus % growth [9]: 101%
fraction unbound [10]: < 0.01
pIC50 [11]: 4.79

COc1cc2cc(C(=O)Nc3ccccc3)c(N)nc2cc1OC [MMV006767]
Naegleria fowleri % growth [1]: 95%
pEC50 [2]: 6.05
inhibition at 5 µM [4]: 86%
Translation Inhibitors (nl = 1.0, in vitro translation with P. falciparum lysate) [5]: 0.75
gametocyte early stage (I-III) GFP-MTR % inhibition ([6]; 0.5µM): 17%
gametocyte early stage (I-III) GFP-MTR % inhibition ([6]; 5µM): 99%
S. cerevisiae jhy222 in YNBD medium growth compared with DMSO control [7]: -0.11
S. cerevisiae jhy222 in YNBEG medium growth compared with DMSO control [7]: -0.49
S. cerevisiae jhy222 in YPD medium growth compared with DMSO control [7]: -0.0536
inhibition at 5 µM [8]: -54%
Perkinsus marinus % growth [9]: 44%
fraction unbound [10]: > 0.05
